Counter-ions that a name gives are not always drawn.
tested on: HCT116; assay: efficacy (fitted maximal change in viability relative to DMSO control); higher = less cytotoxic (negative = loss of viability); conditions: 48 h
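Also: Luminescence-based viability readout, five doses per compound, normalized against on-plate DMSO and empty-well controls, followed by dose-response curve fitting for every drug.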

Going from `O=C(CCCc1ccc2cccnc2n1)NCc1cc(-c2ccc(F)c(C(F)(F)F)c2)no1` [PRP003-062] to `Clc1cccc(-c2ccc(-c3nnc(CCCc4ccc5cccnc5n4)o3)cc2)c1` [PRP003-073], the efficacy rises from -32.2% to -17.9%.

First: O=C(Nc1cc(Cl)cc2c1[nH]c1cnccc12)c1cccnc1 [PS-1145]
Second: FC(F)(F)c1ccc(CNc2ccc(Cc3c[nH]c4ncc(Cl)cc34)cn2)cn1 [Pexidartinib]
The efficacy of the first is higher: 18.5% for the first, -21.9% for the second.

First: C[S+](=O)([O-])c1ccc(Oc2cc(F)cc(C#N)c2)c2c1[C@H](O)C(F)(F)C2 [PT-2385]
Second: CNC(=O)c1ccc(N2C(=S)N(c3ccc(C#N)c(C(F)(F)F)c3)C(=O)C23CCC3)cc1F [RD-162]
The efficacy of the first is higher: -10.6% for the first, -28.5% for the second.

First: O=C(O)c1cccc(-c2noc(-c3ccccc3F)n2)c1 [PTC-124]
Second: CCC(=O)[N-]S(=O)(=O)c1ccc(-c2c(-c3ccccc3)noc2C)cc1.[Na+] [Parecoxib sodium]
The efficacy of the first is lower: -22.5% for the first, -9.88% for the second.

Compared with `C=CCN(/C=C1\C(=O)O[C@@H](COC)[C@]2(C)C1=C(O)C(=O)C1=C2[C@@H](OC(C)=O)C[C@]2(C)C(=O)CC[C@H]12)CC=C` [PX-866], `CCO[C@@H]1OC(=O)C[C@@H]1NC(=O)[C@@H]1CCCN2C(=O)CC[C@H](NC(=O)c3nccc4ccccc34)C(=O)N12` [Pralnacasan] is higher in efficacy: -20.5% for the first, -15.4% for the second.

Going from `CN1CCCN=C1/C=C/c1cccs1` [PYRANTEL PAMOATE] to `CC(C)c1cccc(C(C)C)c1O` [Propofol], the efficacy rises from -47% to -8.33%.

First: CC(=O)O[C@H]1C(=O)[C@]2(C)[C@@H](O)C[C@H]3OC[C@@]3(OC(C)=O)C2[C@H](OC(=O)C4=CC=CC=C4)[C@]5(O)C[C@H](OC(=O)[C@H](O)[C@@H](NC(=O)C6=CC=CC=C6)C7=CC=CC=C7)\C(=C1/C5(C)C)C (some centres not stated) [Paclitaxel]
Second: CSCC[C@H](NC(=O)[C@H](Cc1c[nH]c2ccccc12)NC(=O)CCNC(=O)OC(C)(C)C)C(=O)N[C@@H](CC(=O)O)C(=O)N[C@@H](Cc1ccccc1)C(N)=O [Pentagastrin]
The efficacy of the first is lower: -68.3% for the first, -5.16% for the second.

Going from `CC(=O)O[C@H]1C[C@@H]2CC[C@@H]3[C@H](CC[C@@]4(C)[C@H]3C[C@H]([N+]3(C)CCCCC3)[C@@H]4OC(C)=O)[C@@]2(C)C[C@@H]1[N+]1(C)CCCCC1` [Pancuronium bromide] to `CC(=O)[C@H]1CC[C@H]2[C@@H]3C/C=C4/C[C@@H](O)CC[C@]4(C)[C@H]3CC[C@]12C` [Pregnenolone], the efficacy rises from -8.83% to -6.65%.

First: COc1ccnc(C[S+]([O-])c2nc3cc(OC(F)F)ccc3[nH]2)c1OC (configuration not stated) [Pantoprazole]
Second: C=C[C@H]1CN2CCC1C[C@@H]2C(O)c1ccnc2ccc(OC)cc12 (some centres not stated) [Quinidine]
The efficacy of the first is lower: -34.5% for the first, -25.6% for the second.

Going from `CCN1\C=C(C(O)=O)/C(=O)C2=C1C=C(N3CCN(C)CC3)C(=C2)F` [Pefloxacin] to `CCOc1cc(CC(=O)N[C@@H](CC(C)C)c2ccccc2N2CCCCC2)ccc1C(=O)O` [Repaglinide], the efficacy falls from 5.51% to -23%.

First: CC(C)CC(=O)N[C@H](C(=O)N[C@H](C(=O)N[C@@H](CC(C)C)[C@@H](O)CC(=O)N[C@@H](C)C(=O)N[C@@H](CC(C)C)[C@@H](O)CC(=O)O)C(C)C)C(C)C [Pepstatin]
Second: CCC(C)CCCCC(=O)N[C@@H](CCN)C(=O)NC(C(=O)N[C@H](CCN)C(=O)N[C@@H]1CCNC(=O)C([C@@H](C)O)NC(=O)[C@@H](CCN)NC(=O)[C@@H](CCN)NC(=O)[C@@H](CC(C)C)NC(=O)[C@H](Cc2ccccc2)NC(=O)[C@H](CCN)NC1=O)[C@@H](C)O (some centres not stated) [Polymyxin B sulphate]
The efficacy of the first is higher: -6.41% for the first, -10.6% for the second.

Going from `CCC[C@H](N[C@@H](C)C(=O)N1[C@H](C(=O)O)C[C@@H]2CCCC[C@@H]21)C(=O)OCC` [Perindopril] to `CCOC(=O)[C@H](CCc1ccccc1)N[C@@H](C)C(=O)N1[C@H](C(=O)O)C[C@@H]2CCC[C@@H]21` [Ramipril], the efficacy falls from 9% to -13.7%.

Going from `NNCCc1ccccc1.O=S(=O)(O)O` [Phenelzine] to `CCCNCC(O)COc1ccccc1C(=O)CCc1ccccc1` (configuration not stated) [Propafenone hydrochloride], the efficacy falls from -40.1% to -43.8%.

Compared with `CC(COc1ccccc1)N(CCCl)Cc1ccccc1` (configuration not stated) [Phenoxybenzamine hydrochloride], `CCc1ccc(CCOc2ccc(CC3SC(=O)NC3=O)cc2)nc1` (configuration not stated) [Pioglitazone hydrochloride] is higher in efficacy: -19.8% for the first, 16.5% for the second.

Going from `O=C(CCc1ccc(O)cc1)c1c(O)cc(O)cc1O` [Phloretin] to `O=C(CCc1ccc(O)cc1)c1c(O)cc(O)cc1O[C@@H]1O[C@H](CO)[C@@H](O)[C@H](O)[C@H]1O` [Phlorizin], the efficacy falls from 6.68% to -28.6%.

Going from `Nc1nccc(-c2ccc3noc(-c4ccc(Cl)cc4)c3c2)n1` [Pim 1 Inhibitor 2] to `Clc1ccc2c(N3CCN(CCCN4CCN(c5ccnc6cc(Cl)ccc56)CC4)CC3)ccnc2c1` [Piperaquine], the efficacy rises from -55% to -15.3%.

First: c1cc(CN2CCCNCCNCCCNCC2)ccc1CN1CCCNCCNCCCNCC1 [Plerixafor hydrochloride]
Second: CN(C)C(=O)c1cc2cnc(Nc3ccc(N4CCNCC4)cn3)nc2n1C1CCCC1 [Ribociclib (LEE011)]
The efficacy of the first is higher: -8.04% for the first, -12.5% for the second.

Compared with `COc1cc([C@@H]2c3cc4c(cc3[C@H](O)[C@H]3COC(=O)[C@H]23)OCO4)cc(OC)c1OC` [Podofilox], `COc1ccccc1OCC(O)CN1CCN(CC(=O)Nc2c(C)cccc2C)CC1` (configuration not stated) [Ranolazine] is higher in efficacy: -62.3% for the first, -11.9% for the second.

First: Nc1cccc2c1C(=O)N(C1CCC(=O)NC1=O)C2=O (configuration not stated) [Pomalidomide]
Second: O=C(O)c1cc(O)c2c(c1)C(=O)c1cccc(O)c1C2=O [Rhein]
The efficacy of the first is higher: -14.1% for the first, -14.9% for the second.

First: COC12C(COC(N)=O)\C3=C(/N1CC4C2N4C)C(=O)C(=C(N)/C3=O)\C (configuration not stated) [Porfiromycin]
Second: CCC(C)CNCC(=O)N1CCc2sccc2C1c1cccc(C)n1 (configuration not stated) [RUSKI-201]
The efficacy of the first is lower: -81% for the first, -17% for the second.

First: O=C(O)C[C@H]1CC[C@H](c2ccc(-c3ccc(Nc4ccc(C(F)(F)F)nc4)cn3)cc2)CC1 [Pradigastat]
Second: CCOC(=O)Nc1ccc(NCc2ccc(F)cc2)cc1N [Retigabine]
The efficacy of the first is lower: -15.9% for the first, -11.8% for the second.

First: CC[C@H](C)C(=O)O[C@H]1C[C@H](O)\C=C2\C=C/[C@H](C)[C@H](CC[C@@H](O)C[C@@H](O)CC(O)=O)[C@@H]12 [Pravastatin sodium]
Second: CCCN(CCC)C(=O)C(CCC(=O)O)NC(=O)c1ccccc1 (configuration not stated) [Proglumide]
The efficacy of the first is higher: -7.8% for the first, -18.3% for the second.

Compared with `O=C(C1CCCCC1)N1CC(=O)N2CCc3ccccc3C2C1` (configuration not stated) [Praziquantel], `C#CCN[C@@H]1CCc2ccccc21` [Rasagiline mesylate] is higher in efficacy: -15.9% for the first, -9.57% for the second.

Compared with `C[C@]12CC(=O)[C@H]3[C@@H](CC\C4=C\C(=O)\C=C/[C@]34C)[C@@H]1CC[C@]2(O)C(=O)CO` [Prednisone], `C[C@H]1CN(CCN1C2=CN=C(NC/3=C/C(=C\N(C)C3=O)C4=CC=NC(=C4CO)N5CC[N]6C7=C(CC(C)(C)C7)C=C6C5=O)C=C2)C8COC8` [RG-7845 (GDC-0853)] is lower in efficacy: 8.5% for the first, -34.1% for the second.

First: CC(C)C[C@H](CN)CC(=O)O [Pregabalin]
Second: CNNCc1ccc(C(=O)NC(C)C)cc1 [Procarbazine hydrochloride]
The efficacy of the first is higher: -8.5% for the first, -10.4% for the second.

First: COCCOc1ccc(N2CCN(CCn3ncc4c3nc(N)n3nc(-c5ccco5)nc43)CC2)cc1 [Preladenant]
Second: CN1C(=O)\C(=C/C2=C1N=C(NC3CCOCC3)N=C2)OC4=C(F)C=C(F)C=C4 [R-1487]
The efficacy of the first is lower: -16% for the first, -14.4% for the second.

First: C=Cc1cc(O)cc2nc(-c3ccc(O)c(F)c3)oc12 [Prinaberel]
Second: OC1=CC2=C(C(=C1)O)C(=O)\C(=C(/O2)C3=CC(=C(O)C=C3)O)O [Quercetin]
The efficacy of the first is lower: -14.8% for the first, -10.2% for the second.

Going from `CC(C)(Sc1cc(C(C)(C)C)c(O)c(C(C)(C)C)c1)Sc1cc(C(C)(C)C)c(O)c(C(C)(C)C)c1` [Probucol] to `CC(C)(C)C1=NC2=C([NH]1)C3=CC=C(F)C=C3C4=C2\C=C/NC4=O` [Pyridone 6], the efficacy falls from -25.9% to -28.4%.

Going from `CC[C@H](NC(C)C)[C@H](O)C1=CC=C(O)C2=C1\C=C/C(=O)N2` [Procaterol hydrochloride] to `CCc1cccc2c3c([nH]c12)[C@@](CC)(CC(=O)O)OCC3` [R-Etodolac], the efficacy falls from 6.79% to -22.7%.

Going from `CCCOc1ccc(C(=O)OCCN(CC)CC)cc1N` [Proparacaine] to `CCCc1cc(C(N)=S)ccn1` [Protionamide], the efficacy rises from -20.7% to -9.17%.

Going from `CCCCC[C@H](O)/C=C/[C@H]1[C@H](O)CC(=O)[C@@H]1C/C=C\CCCC(=O)O` [Prostaglandin E2] to `CN(CC1=CC2=C(N\C(=N/C2=O)C)C=C1)C3=CC=C(S3)C(=O)N[C@@H](CCC(O)=O)C(O)=O` [Raltitrexed], the efficacy falls from -28.6% to -59%.

Going from `OC[C@H]1O[C@H]([C@H](O)[C@@H](O)[C@@H]1O)C2=C(O)C=CC3=C2O/C=C(C3=O)/C4=CC=C(O)C=C4` [Puerarin] to `NC(=O)c1ncn([C@@H]2O[C@H](CO)[C@@H](O)[C@H]2O)n1` [Ribavirin], the efficacy rises from -15.8% to 18.5%.

First: CC(C)[C@H](CO)Nc1nc(Nc2ccc(C(=O)O)c(Cl)c2)c2ncn(C(C)C)c2n1 [Purvalanol B]
Second: CC1=CC/2=C(C=C1C)N(C[C@@H](O)[C@@H](O)[C@@H](O)CO)C/3=N/C(=O)NC(=O)C3=N2 [Riboflavin]
The efficacy of the first is lower: -11.6% for the first, -9.8% for the second.

Compared with `OCc1ccc(-c2ccc(-c3ccc(CO)s3)o2)s1` [RITA], `CCOCc1nc2c(N)nc3ccccc3c2n1CC(C)(C)O` [Resiquimod] is higher in efficacy: -46% for the first, -14.3% for the second.

First: Cc1ccc(Nc2cc(N[C@@H]3CCCC[C@@H]3N)nnc2C(N)=O)nc1C [RO-9021]
Second: CCC(=O)NCC[C@@H]1CCc2ccc3c(c21)CCO3 [Ramelteon]
The efficacy of the first is lower: -74.9% for the first, -25.2% for the second.

Compared with `O=C(CBr)N1CC([N+](=O)[O-])([N+](=O)[O-])C1` [RRx-001], `CO[C@H]1/C=C/O[C@@]2(C)Oc3c(C)c(O)c4c(O)c(c(/C=N/N5CCN(C)CC5)c(O)c4c3C2=O)NC(=O)/C(C)=C\C=C\[C@H](C)[C@H](O)[C@@H](C)[C@@H](O)[C@@H](C)[C@H](OC(C)=O)[C@@H]1C` [Rifampicin] is higher in efficacy: -23.7% for the first, -20.5% for the second.

From the supplement of paper PMC10290057
